29 compounds from patent US7923465B2, “Cannabinoid receptor ligands, pharmaceutical compositions containing them, and process for their preparation” (priority 2005, dated 2011) can be followed below.

Data set [1] addresses hCB2 (Homo sapiens, UniProt P34972). Kind of data set: In vitro binding assay using hCB2-CHO membranes, [3H]-CP-55,940 displacement (Protocol IV). Conditions: for inhibition at 0.3 µM: 1 h, read-out: % Displacement Protocol IV. More on the design: expressed in transfected cells; host or cells: CHO (hCB2-CHO, generated in-house). Here is the method:
IV. Protocol for In Vitro Assay Using hCB2-CHO Membranes:
In this assay, [^3H]-CP-55,940 was used as the radioligand to bind human CB2 receptor expressed on the membranes from CHO cells (hCB2-CHO cell line was generated in-house) which can be displaced by unlabeled ligands having affinity to the CB2 receptor.
The assay was performed according to the modified method of Ross et al., 1999 (Br. J. Pharmacol. 128, 735-743). The reaction was set up in a total volume of 200 μl in PEI (0.2%) precoated Millipore GFB filter plates. 1 mM stocks of test compounds were prepared in DMSO and tested at a final concentration of 300 nM. The non-specific binding was determined by 0.5 μM CP-55, 940. The total reaction mixture contained Tris-BSA buffer (50 mM Tris, 5 mM MgCl2, 1 mM EDTA, pH 7.4 with 0.1% BSA), unlabelled CP-55, 940 (0.5 μM) or test samples, [^3H]-CP-55, 940 (0.75 nM) and 25-50 μg of human CB2 receptor preparation. The assay mixture (with or without the test compound) was incubated at 30° C. for 1 hour. The reaction was stopped by rapid filtration under vacuum and the radioactivity on the filters was measured by liquid scintillation counting.
The percent (%) displacement by a test ligand was calculated by comparing the specific bound values.

[2] abbreviates: hCB2-CHO membranes, [3H]-CP-55,940 displacement.

Where two headings read alike, the source gives them in different places.

Chain of hCB2 (P34972 whole entry): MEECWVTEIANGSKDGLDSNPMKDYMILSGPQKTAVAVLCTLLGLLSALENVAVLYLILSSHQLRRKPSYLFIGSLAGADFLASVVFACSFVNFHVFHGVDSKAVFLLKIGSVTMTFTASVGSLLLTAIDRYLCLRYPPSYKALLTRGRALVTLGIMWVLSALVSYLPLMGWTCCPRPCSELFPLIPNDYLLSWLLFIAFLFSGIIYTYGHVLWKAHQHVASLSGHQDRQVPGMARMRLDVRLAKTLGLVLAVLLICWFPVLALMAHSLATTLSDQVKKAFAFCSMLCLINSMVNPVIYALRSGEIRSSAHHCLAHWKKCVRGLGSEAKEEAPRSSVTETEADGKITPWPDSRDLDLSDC

With `CC(C)(C)NC(=O)c1nn(Cc2ccc(F)cc2)c2c1C1CCC2C1` (centres unmarked) [Example 335a, N(3)-(tert-butyl)-1-(4-fluorobenzyl)-4,5,6,7-tetrahydro-1H-4,7-methano-indazole-3-carboxamide], in data set [1], the inhibition at 0.3 µM is 96.5%.
Still for that read-out and setting: the same measure for `O=C(NC12CC3CC(CC(C3)C1)C2)c1nn(-c2ccc(F)cc2F)c2c1C1CCC2C1` (centres unmarked) [Example 334, N(3)-(Adamantan-1yl)-1-(2,4-difluorophenyl)-4,5,6,7-tetrahydro-1H-4,7-methano-indazole-3-carboxamide]: 100%.
With `CN1CCN(NC(=O)c2nn(-c3ccc(F)cc3F)c3c2C2CCC3C2)CC1` (centres unmarked) [Example 318, N(3)-(4-methylpiperazino)-1-(2,4-difluorophenyl)-4,5,6,7-tetrahydro-1H-4,7-methano-indazole-3-carboxamide], in data set [1] (setting [2]), the inhibition at 0.3 µM was determined as 31%.
Take `C[C@@H](NC(=O)c1nn(-c2ccc(F)cc2F)c2c1C1CCC2C1)c1ccccc1` (some centres unmarked) [Example 293, N(3)-(R-1-phenylethyl)-1-(2,4-difluorophenyl)-4,5,6,7-tetrahydro-1H-4,7-methano-indazole-3-carboxamide]: the melting point was in the range of 40 to 45 °C.
As for `CC12CCC(C1)C(C)(C)C2NC(=O)c1nn(-c2ccc(Cl)cc2Cl)c2c1C1CCC2c2ccccc21` (centres unmarked) [Example 507, N12-(1,3,3-Trimethylbicyclo[2.2.1]hept-2-yl)-10-(2,4-dichlorophenyl)-10,11-diazatetracyclo[6.5.2.0^2,7.0^9,13]pentadeca-2(7),3,5,9(13),11-pentaene-12-carboxamide], in data set [1] (setting [2]), the inhibition at 0.3 µM worked out at 91.7%.
Regarding `CC12CCC(c3c(C(=O)Nc4ccccc4)nn(-c4ccc(Cl)cc4Cl)c31)C2(C)C` (centres unmarked) [Example 401, N(3)-Phenyl-1-(2,4-dichlorophenyl)-7,8,8-trim ethyl-4,5,6,7-tetrahydro-1H-4,7-methano-indazole-3-carboxamide], the melting point was 112 to 115 °C.
For the compound `O=C(N[C@H](CO)c1ccc(F)cc1)c1nn(-c2ccc(F)cc2F)c2c1C1CCC2C1` (stereo partly drawn) [Example 332, N(3)-[(1S)-2-Hydroxy-1-(4-fluorophenyl)ethyl]-1-(2,4-difluorophenyl)-4,5,6,7-tetrahydro-1H-4,7-methano-indazole-3-carboxamide], in data set [1] (setting [2]), the inhibition at 0.3 µM was determined as 70.1%.
Same read-out and setting: the same measure for `O=C(NCc1ccco1)c1nn(-c2ccc(F)cc2F)c2c1C1CCC2C1` (centres unmarked) [Example 330, N(3)-(2-furylmethyl)-1-(2,4-difluorophenyl)-4,5,6,7-tetrahydro-1H-4,7-methano-indazole-3-carboxamide]: 64.9%.
With `CC(C)(C)NC(=O)c1nn(-c2ccc(Cl)cc2Cl)c2c1C1CCC2C1` (centres unmarked) [Example 327, N(3)-(tert-Butyl)-1-(2,4-dichlorophenyl)-4,5,6,7-tetrahydro-1H-4,7-methano-indazole-3-carboxamide], in data set [1] (setting [2]), the inhibition at 0.3 µM was 100%.
The same measure, in the same setting: with `CC(C)(NC(=O)c1nn(-c2ccc(Cl)cc2Cl)c2c1C1CCC2c2ccccc21)c1ccccc1` (centres unmarked) [Example 508, N12-(1-Methyl-1-phenylethyl)-10-(2,4-dichlorophenyl)-10,11-diazatetracyclo[6.5.2.0^2,7.0^9,13]pentadeca-2,4,6,9(13),11-pentaene-12-carboxamide] the figure was 67.7%.
`O=C(NCc1cccs1)c1nn(-c2ccc(F)cc2F)c2c1C1CCC2C1` (centres unmarked) [Example 331, N(3)-(2-thiophenemethyl)-1-(2,4-difluorophenyl)-4,5,6,7-tetrahydro-1H-4,7-methano-indazole-3-carboxamide]: in data set [1] (setting [2]), the “% Displacement Protocol IV” value stood at 75.26%.
In turn, `O=C(NNc1ccccc1F)c1nn(-c2ccc(Br)cc2)c2c1C1CCC2C1` (centres unmarked) [Example 278, N(3)-[(2-Fluorophenyl)amino]-1-(4-bromophenyl)-4,5,6,7-tetrahydro-1H-4,7-methano-indazole-3-carboxamide] had a melting point of 123 °C.
With `O=C(NCc1ccccc1Cl)c1nn(-c2ccc(F)cc2F)c2c1C1CCC2C1` (centres unmarked) [Example 297, N5-(2-Chlorobenzyl)-3-(2,4-difluorophenyl)-3,4-diazatricyclo[5.2.1.0^2,6]deca-2(6),4-diene-5-carboxamide], in data set [1] (setting [2]), the inhibition at 0.3 µM was found to be 70.3%.
In the case of `CC(C)(C)NC(=O)c1nn(-c2ccc(F)cc2F)c2c1[C@H]1CC[C@]2(C)C1(C)C` [Example 411, (4S,7R)—N(3)-tert-Butyl-1-(2,4-difluorophenyl)-7,8,8-trimethyl-4,5,6,7-tetrahydro-1H-methano-indazole-3-carboxamide], in data set [1] (setting [2]), the “% Displacement Protocol IV” value is recorded as 49.68%.
Consider `O=C(Nc1ccc(O)cc1)c1nn(-c2ccc(F)cc2F)c2c1C1CCC2C1` (centres unmarked) [Example 328, N(3)-(4-Hydroxyphenyl)-1-(2,4-difluorophenyl)-4,5,6,7-tetrahydro-1H-4,7-methano-indazole-3-carboxamide], for which, in data set [1] (setting [2]), the inhibition at 0.3 µM is 64.4%.
On the same count and under the same terms, the same measure for `CC(NC(=O)c1nn(-c2ccc(F)cc2F)c2c1C1CC3CC(C1)CC2C3)c1ccccc1Cl` (centres unmarked) [Example 151, N(7)-[1-(2-Chlorophenyl)ethyl]-5-(2,4-difluorophenyl)-5,6-diazatetracyclo[7.3.1.1^3,11.0^4,8]tetradeca-4(8),6-diene-7-carboxamide]: 69.2%.
Consider `CC12CCC(c3c(C(=O)N[C@@H](CO)c4ccccc4)nn(-c4ccc(F)cc4F)c31)C2(C)C` (some centres unmarked) [Example 410], for which the “% Displacement Protocol IV” value in data set [1] (setting [2]) worked out at 15.5%.
Take `CC(C)(C)NC(=O)c1n[nH]c2c1C1(c3ccc(Cl)c(Cl)c3)CCC2C1` (centres unmarked) [Example 325, N(3)-(tert-Butyl)-4-(3,4-dichlorophenyl)-4,5,6,7-tetrahydro-1H-4,7-methano-indazole-3-carboxamide]: the inhibition at 0.3 µM in data set [1] (setting [2]) amounted to 99.6%.
Regarding `CC(C)(C)NC(=O)c1nn(-c2ccc(Br)cc2)c2c1C1CCC2C1` (centres unmarked) [Example 324, N(3)-(tert-Butyl)-1-(4-bromophenyl)-4,5,6,7-tetrahydro-1H-4,7-methano-indazole-3-carboxamide], the inhibition at 0.3 µM in data set [1] is 88.5%.
Take `CC(C)(C)NC(=O)c1nn(-c2ccc(F)cc2F)c2c1C1CCC2c2ccccc21` (centres unmarked) [Example 702, N(12)-tert-Butyl-10-(2,4-difluorophenyl)-10,11-diazatetracyclo[6.5.2.0^2,7.0^9,13]tetradeca-2,4,6,9(13),11-pentaene-12-carboxamide]: the “% Displacement Protocol IV” value in data set [1] (setting [2]) is recorded as 33.00%.
Compound `O=C(NCc1c(F)cccc1F)c1nn(-c2ccc(Cl)cc2Cl)c2c1C1CCC2C1` (centres unmarked) [Example 248, N(3)-(2,6-Difluorobenzyl)-1-(2,4-dichlorophenyl)-4,5,6,7-tetrahydro-1H-4,7-methano-indazole-3-carboxamide] showed a melting point of 130 to 133 °C.
Turning to `CCOc1cc(F)ccc1-n1nc(C(=O)NC(C)(C)C)c2c1C1CCC2C1` (centres unmarked) [Example 329, N(3)-(tert-Butyl)-1-(2-ethoxy,4-fluorophenyl)-4,5,6,7-tetrahydro-1H-4,7-methano-indazole-3-carboxamide], the inhibition at 0.3 µM in data set [1] (setting [2]) stood at 88.5%.
With `COC(=O)[C@H](CC(C)C)NC(=O)c1nn(-c2ccc(F)cc2F)c2c1C1CCC2C1` (stereo partly drawn) [Example 333, Methyl-(2S)-2-[5-(2,4-difluorophenyl)-4,5-diazatricyclo[5.2.1.0.^2,6]deca-2(6),3-dien-3-ylcarboxamido]-4-methylpentanoate], in data set [1] (setting [2]), the “% Displacement Protocol IV” value is recorded as 100.00%.
For the compound `CCCCCn1nc2c(c1C(=O)NC(C)(C)c1ccccc1)C1CC3CC(CC2C3)C1` [Example 190a, N(7)-(1-Methyl-1-phenylethyl)-6-pentyl-5,6-diazatetracyclo[7.3.1.1^3,11.0^4,8]tetradeca-4,7-diene-7-carboxamide], the inhibition at 0.3 µM in data set [1] was determined as 0%.
As to `CC(NC(=O)c1nn(-c2ccc(Cl)cc2)c2c1C1CC3CC(C1)CC2C3)c1ccccc1Cl` (centres unmarked) [Example 138, N7-[1-(2-Chlorophenyl)ethyl]-5-(4-chlorophenyl)-5,6-diazatetracyclo[7.3.1.1^3,11.0^4,8]tetradeca-4(8),6-diene-7-carboxamide], the inhibition at 0.3 µM in data set [1] (setting [2]) turned out to be 68%.
As for `Cc1ccc(CN2NC3=C(C4CCC3C4)C2C(=O)NC(C)(C)C)cc1` (centres unmarked) [Example 336b, N(3)-(tert-butyl)-2-(4-methylbenzyl)-4,5,6,7-tetrahydro-1H-4,7-methano-indazole-3-carboxamide], the inhibition at 0.3 µM in data set [1] (setting [2]) was determined as 26.5%.
For `O=C(NCc1ccccc1Cl)c1nn(-c2ccc(Cl)cn2)c2c1C1CC3CC(C1)CC2C3` [Example 185, N7-(2-Chlorobenzyl)-5-(5-chloro-2-pyridyl)-5,6-diazatetracyclo[7.3.1.1^3,11.0^4,8]tetradeca-4(8),6-diene-7-carboxamide], in data set [1] (setting [2]), the inhibition at 0.3 µM was 60.7%.
Still for that read-out and setting: with `CC(C)(C)NC(=O)c1nn(-c2ccc(Cl)cc2)c2c1C1CCC2C1` (centres unmarked) [Example 321, N(3)-(tert-Butyl)-1-(4-chlorophenyl)-4,5,6,7-tetrahydro-1H-4,7-methano-indazole-3-carboxamide] the figure was 92.9%; with `CC(C)(C)NC(=O)C1C2=C(NN1Cc1ccc(F)cc1)C1CCC2C1` (centres unmarked) [Example 335b, N(3)-(tert-butyl)-2-(4-fluorobenzyl)-4,5,6,7-tetrahydro-1H-4,7-methano-indazole-3-carboxamide], 8.7%.

For orientation: melting point means the temperature of the solid-liquid transition.
